Reference: patent publication US20240383869A1, “ARYLACETYL INHIBITORS OF TG2 AND USES THEREOF” (UNIVERSITY OF OTTAWA, priority 2021, published 2024)

Columns and labels:
hTG1 = biological target: T1, hTG1 (Homo sapiens, UniProt P22735); experiment: Colorimetric transamidase activity assay, isozyme selectivity; type: biochemical; conditions: normalized [I]/α
T1 sequence (P22735 1-817): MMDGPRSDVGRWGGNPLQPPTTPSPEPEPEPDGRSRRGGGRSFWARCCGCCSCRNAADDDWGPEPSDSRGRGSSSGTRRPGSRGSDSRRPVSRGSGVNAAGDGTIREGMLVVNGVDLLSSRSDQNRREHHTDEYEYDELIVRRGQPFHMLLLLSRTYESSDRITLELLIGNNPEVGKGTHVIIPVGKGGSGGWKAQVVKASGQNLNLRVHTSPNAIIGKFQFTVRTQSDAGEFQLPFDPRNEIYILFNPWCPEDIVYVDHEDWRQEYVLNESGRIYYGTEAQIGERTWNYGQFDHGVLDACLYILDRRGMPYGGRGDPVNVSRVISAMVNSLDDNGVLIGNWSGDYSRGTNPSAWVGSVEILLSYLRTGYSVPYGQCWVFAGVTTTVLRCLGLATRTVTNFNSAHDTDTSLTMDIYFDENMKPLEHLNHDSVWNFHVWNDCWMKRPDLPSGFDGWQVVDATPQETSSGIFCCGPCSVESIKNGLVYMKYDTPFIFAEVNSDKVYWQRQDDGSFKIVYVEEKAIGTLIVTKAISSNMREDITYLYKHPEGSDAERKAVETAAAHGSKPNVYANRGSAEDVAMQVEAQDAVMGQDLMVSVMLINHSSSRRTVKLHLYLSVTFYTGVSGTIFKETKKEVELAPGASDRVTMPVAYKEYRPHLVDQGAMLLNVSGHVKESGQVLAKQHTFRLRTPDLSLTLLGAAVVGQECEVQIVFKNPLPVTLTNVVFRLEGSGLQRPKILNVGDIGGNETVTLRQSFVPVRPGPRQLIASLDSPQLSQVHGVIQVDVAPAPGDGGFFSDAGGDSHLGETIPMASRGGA
Protocol: Colorimetric transamidase activity assay. The activities of hTG1, hTG2 and hTG6 were measured via a colorimetric assay using the chromogenic substrate Cbz-Glu(γ-p-nitrophenyl ester)Gly (AL5), as described (Leblanc, A. et al., “Kinetic studies of guinea pig liver transglutaminase reveal a general-base-catalyzed deacylation mechanism.” Biochemistry 2001, 40 (28), 8335-8342). Assays were conducted at 25° C. in 50 mM MOPS buffer (pH 6.95) containing 7.5 mM CaCl2. […] Stock solutions of the inhibitors were made in water ranging in concentration from 100-500 μM. The reaction was initiated with the addition of enzyme, 0.10 μM hTG1, 0.25 μM hTG2 (4.6 mU/mL) or 0.32 μM hTG6. Formation of hydrolysis product, p-nitrophenolate (pNP), was monitored at 405 nm in a polystyrene 96-well microplate using a BioTek Synergy 4 plate reader. The observed first-order rate constants of inactivation (kobs) were determined via non-linear regression fit to a mono-exponential model (Eqn 1) of absorbance versus time curves. These rate constants (kobs) were in turn fit to a saturation kinetics model (Eqn 2), by non-linear regression, providing the kinetic parameters kinact and KI, as previously described by Stone and Hofsteenge (Stone, S. R. and Hofsteenge, J., “Specificity of activated human protein C.” Biochem. J. 1985, 230 (2), 497-502). […] Experiments were completed in triplicate at minimum.

FXIIIa = biological target: T2, FXIIIa (Homo sapiens, UniProt P00488); experiment: Fluorescence isopeptidase activity assay (A101 FRET-quenched probe), isozyme selectivity; type: biochemical; conditions: normalized [I]/α
T2 construct: purchased Zedira
T2 sequence (P00488 39-732 limits assumed): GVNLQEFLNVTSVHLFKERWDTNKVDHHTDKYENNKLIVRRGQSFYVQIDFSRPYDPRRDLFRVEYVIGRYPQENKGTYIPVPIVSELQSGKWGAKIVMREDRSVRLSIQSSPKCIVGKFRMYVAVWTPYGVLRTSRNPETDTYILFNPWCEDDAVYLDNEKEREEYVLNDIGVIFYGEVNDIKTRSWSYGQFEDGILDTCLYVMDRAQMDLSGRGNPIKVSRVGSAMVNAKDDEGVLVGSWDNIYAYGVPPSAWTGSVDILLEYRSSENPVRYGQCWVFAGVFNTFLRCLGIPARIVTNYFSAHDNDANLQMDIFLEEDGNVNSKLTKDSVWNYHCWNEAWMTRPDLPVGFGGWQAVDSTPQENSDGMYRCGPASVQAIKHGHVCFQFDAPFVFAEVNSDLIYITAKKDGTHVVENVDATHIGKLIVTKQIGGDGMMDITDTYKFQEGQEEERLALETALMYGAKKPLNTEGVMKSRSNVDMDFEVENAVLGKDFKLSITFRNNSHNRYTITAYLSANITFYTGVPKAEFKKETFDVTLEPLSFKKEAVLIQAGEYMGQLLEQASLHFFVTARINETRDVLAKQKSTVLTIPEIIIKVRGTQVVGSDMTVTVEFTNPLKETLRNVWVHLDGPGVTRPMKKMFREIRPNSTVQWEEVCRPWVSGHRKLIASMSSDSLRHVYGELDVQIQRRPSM
Protocol: Fluorescence isopeptidase activity assay. The isopeptidase activity of pre-activated TG3a and FXIIIa (purchased from Zedira) was measured via a fluorescence-based assay as described (Kirily, R. et al., “Isopeptidase activity of human transglutaminase 2: disconnection from transamidation and characterization by kinetic parameters.” Amino Acids 2016, 48 (1), 31-40) using the commercially available peptidic FRET quenched probe A101. Briefly, the final concentration in the reaction mixture contained 50 mM Tris (pH 7.0), 10 mM CaCl2, 100 mM NaCl, 2.8 mM TCEP, 50 μM A101 and 14 mM H-Gly-OMe. The reaction was monitored at 25° C. using a BioTek Synergy 4 plate reader (Ex/Em: 318/413 nm). Enzymatic inhibition assays were run under Kitz and Wilson conditions (Kitz, R. and Wilson, I. B., “Esters of methanesulfonic acid as irreversible inhibitors of acetylcholinesterase.” J. Biol. Chem. 1962, 237, 3245-49), which were established for TG3a and FXIIIa at a substrate (A101) concentration of 50 μM using enzyme concentrations of 0.17 μM and 0.11 μM for TG3a and FXIIIa, respectively.

SMILES	inhibition of TG1 (hTG1)	inhibition of FXIIIa (FXIIIa)
C=CC(=O)NCCCC[C@H](NC(=O)Cc1ccccc1F)C(=O)N1CCN(C(=O)c2cccc3ccccc23)CC1 [Inhibitor 72, (S)-N-(6-(4-(1-naphthoyl)piperazin-1-yl)-5-(2-(2-fluorophenyl)acetamido)-6-oxohexyl)acrylamide]	none of these inhibitors showed any detectable inhibition	none of these inhibitors showed any detectable inhibition
C=CC(=O)NCCCC[C@H](NC(=O)Cc1ccccc1C)C(=O)N1CCN(C(=O)c2cccc3ccccc23)CC1 [Inhibitor 74, (S)-N-(6-(4-(1-naphthoyl)piperazin-1-yl)-5-(2-(2-methylphenyl)acetamido)-6-oxohexyl)acrylamide]	none of these inhibitors showed any detectable inhibition	none of these inhibitors showed any detectable inhibition
C=CC(=O)NCCCC[C@H](NC(=O)OCc1ccccc1)C(=O)N1CCN(C(=O)c2cccc3ccccc23)CC1 [AA9, reference compound]	none of these inhibitors showed any detectable inhibition	none of these inhibitors showed any detectable inhibition
